Experimental data: the supplement of paper PMC11061612

Legend:
Test in all cases: combination Emax (second highest fraction inhibited in the dose matrix, 72 h); higher = more inhibition; extreme values may be limits of the assay
[1] = tested on: DMS-53 (Small Cell Lung Carcinoma)
In short: (§1)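 Cell lines in DMEM/F12 or RPMI with 10% FBS were plated in 1536-well plates, held 24 hours at 37°C, 5% CO2, then given two-drug dose matrices for 72 hours (DMSO typically 0.2%). Viability was read by CellTiter-Glo 2.0 luminescence and scaled as inhibition from 0 (vehicle wells) to 1 (blank wells). Combination Emax is the second-highest inhibition in the matrix; Bliss excess is observed combination effect minus expected EA + EB − EA·EB, EA and EB being single-agent effects.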

[2] = tested on: JHU-022 (Oral Cavity Carcinoma)
In short: as §1

[3] = tested on: NCI-H1703 (Squamous Cell Lung Carcinoma)
In short: as §1

[4] = tested on: KYSE-220 (Esophageal Squamous Cell Carcinoma)
In short: as §1

[5] = tested on: JHH-2 (Hepatocellular Carcinoma)
In short: as §1

[6] = tested on: NCI-H2228 (Lung Adenocarcinoma)
In short: as §1

[7] = tested on: GCT (Other Solid Carcinomas)
In short: as §1

[8] = tested on: NCI-H716 (Colorectal Carcinoma)
In short: as §1

[9] = tested on: MDA-MB-436 (Breast Carcinoma)
In short: as §1

[10] = tested on: EW-7 (Ewing's Sarcoma)
In short: as §1

[11] = tested on: GA-10 (Burkitt's Lymphoma)
In short: as §1

[12] = tested on: JIMT-1 (Breast Carcinoma)
In short: as §1

[13] = tested on: CESS (Acute Myeloid Leukemia)
In short: as §1

[14] = tested on: NCI-H2087 (Lung Adenocarcinoma)
In short: as §1

[15] = tested on: KP-N-YN (Neuroblastoma)
In short: as §1

[16] = tested on: LS-411N (Colorectal Carcinoma)
In short: as §1

[17] = tested on: AU565 (Breast Carcinoma)
In short: as §1

[18] = tested on: UACC-812 (Breast Carcinoma)
In short: as §1

[19] = tested on: HCC1395 (Breast Carcinoma)
In short: as §1

[20] = tested on: ESO26 (Esophageal Adenocarcinoma)
In short: as §1

SMILES	combination Emax [1]	combination Emax [2]	combination Emax [3]	combination Emax [4]	combination Emax [5]	combination Emax [6]	combination Emax [7]	combination Emax [8]	combination Emax [9]	combination Emax [10]	combination Emax [11]	combination Emax [12]	combination Emax [13]	combination Emax [14]	combination Emax [15]	combination Emax [16]	combination Emax [17]	combination Emax [18]	combination Emax [19]	combination Emax [20]
COc1cccc(OCCCN)c1-c1cc(Nc2cnc(C#N)cn2)n[nH]1 [Prexasertib] + CCc1c2c(nc3ccc(O)cc13)-c1cc3c(c(=O)n1C2)COC(=O)[C@]3(O)CC [SN-38] (first compound max 1 µM, 7x7, partner max 0.3 µM)	0.878	0.756	0.971	0.96	0.95	0.821	0.842	0.726	0.693	0.96	1	0.87	0.983	0.918	0.985	0.867	0.949	0.604	0.898	0.76
CN(C)CCCOc1ccc(-c2ccc3ncc4c(c3c2)n(C2CCOCC2)c(=O)n4C)cn1 [AZD0156] + C[C@@H]1COCCN1C2=NC(=NC(=C2)C3(CC3)[S@](=N)(=O)C)C4=C5C=CNC5=NC=C4 [AZD6738] (first compound max 1 µM, 7x7, partner max 10 µM)	0.134	0.525	0.856	0.876	0.597	0.517	0.231	0.667	0.23	0.935	1	0.799	0.923	0.666	0.973	0.808	0.473	0.295	0.8	0.414
Cn1cnc2c(F)c(Nc3ccc(Br)cc3Cl)c(C(=O)NOCCO)cc21 [Selumetinib] + CCN(CCO)CCCOc1ccc2c(Nc3cc(CC(=O)Nc4cccc(F)c4)[nH]n3)ncnc2c1 [AZD2811] (first compound max 10 µM, 7x7, partner max 1 µM)	0.158	0.54	0.472	0.52	0.325	0.296	0.384	0.428	0.264	0.509	0.7	0.153	0.423	0.445	0.581	0.786	0.2	0.166	0.212	0.212
Cc1c2c(nn1C)CSCc1cc(n(C)n1)CSc1cc(c3ccccc3c1)OCCCc1c(C(=O)O)n(C)c3c-2c(Cl)ccc13 [AZD5991] + C=CCn1c(=O)c2cnc(Nc3ccc(N4CCN(C)CC4)cc3)nc2n1-c1cccc(C(C)(C)O)n1 [AZD1775] (first compound max 1 µM, partner max 1 µM)	0.684	0.451	0.954	0.848	0.58	0.55	0.556	0.611	0.289	0.919	1	0.763	0.967	0.481	0.912	0.741	1	0.478	0.88	0.683
CCc1c2c(nc3ccc(O)cc13)-c1cc3c(c(=O)n1C2)COC(=O)[C@]3(O)CC [SN-38] + CN(C)CCCOc1ccc(-c2ccc3ncc4c(c3c2)n(C2CCOCC2)c(=O)n4C)cn1 [AZD0156] (first compound max 0.3 µM, 7x7, partner max 1 µM)	0.729	0.842	0.875	0.947	0.7	0.716	0.683	0.202	0.572	0.975	0.913	0.266	0.984	0.921	0.806	0.363	0.8	0.608	0.512	0.655
C[C@@H]1COCCN1c1cc(C2([S@](C)(=N)=O)CC2)nc(-c2ccnc3[nH]ccc23)n1 [AZD6738] + O=C(c1cc(Cc2n[nH]c(=O)c3ccccc23)ccc1F)N1CCN(C(=O)C2CC2)CC1 [Olaparib] (first compound max 10 µM, 7x7, partner max 10 µM)	0.148	0.563	0.847	0.808	0.674	0.523	0.392	0.468	0.349	0.929	0.942	0.598	0.864	0.534	0.76	0.383	0.449	0.351	0.852	0.319
CC1(C)CCC(CN2CCN(c3ccc(C(=O)NS(=O)(=O)c4ccc(NCC5CCOCC5)c([N+](=O)[O-])c4)c(Oc4cnc5[nH]ccc5c4)c3)CC2)=C(c2ccc(Cl)cc2)C1 [Venetoclax] + C1CN(CCC1(C(=O)N[C@@H](CCO)C2=CC=C(C=C2)Cl)N)C3=NC=NC4=C3C=CN4 [Capivasertib] (first compound max 1 µM, 7x7, partner max 3 µM)	0.361	0.359	0.384	0.223	0.625	0.405	0.426	0.287	0.163	0.962	0.584	0.188	0.467	0.123	0.573	0.305	0.46	0.238	0.662	0.311
CCN(CCO)CCCOc1ccc2c(Nc3cc(CC(=O)Nc4cccc(F)c4)[nH]n3)ncnc2c1 [AZD2811] + C[C@@H]1COCCN1C2=NC(=NC(=C2)C3(CC3)[S@](=N)(=O)C)C4=C5C=CNC5=NC=C4 [AZD6738] (first compound max 1 µM, 7x7, partner max 10 µM)	0.144	0.535	0.834	0.884	0.62	0.517	0.242	0.515	0.311	0.902	0.978	0.677	0.893	0.662	0.957	0.819	0.362	0.323	0.785	0.0804
CCN(CCO)CCCOc1ccc2c(Nc3cc(CC(=O)Nc4cccc(F)c4)[nH]n3)ncnc2c1 [AZD2811] + C=CCn1c(=O)c2cnc(Nc3ccc(N4CCN(C)CC4)cc3)nc2n1-c1cccc(C(C)(C)O)n1 [AZD1775] (first compound max 1 µM, partner max 1 µM)	0.111	0.388	0.94	0.804	0.574	0.598	0.292	0.562	0.235	0.817	0.992	0.488	0.922	0.291	0.913	0.641	0.449	0.116	0.682	0.604
CC1(C)CCC(CN2CCN(c3ccc(C(=O)NS(=O)(=O)c4ccc(NCC5CCOCC5)c([N+](=O)[O-])c4)c(Oc4cnc5[nH]ccc5c4)c3)CC2)=C(c2ccc(Cl)cc2)C1 [Venetoclax] + Cn1cnc2c(F)c(Nc3ccc(Br)cc3Cl)c(C(=O)NOCCO)cc21 [Selumetinib] (first compound max 1 µM, 7x7, partner max 3 µM)	0.367	0.42	0.178	0.31	0.388	0.185	0.289	0.366	0.111	0.887	0.207	0.14	0.319	0.378	0.632	0.526	0.201	0.0864	0.693	0.137
